Test results published in patent US10471035B2, “Compositions and methods for using esters of meroterpenes and of other resveratrol analogues” (Sunny BioDiscovery, priority 2014, dated 2019).
Converted amounts (≈) assume the structure as drawn.

What was measured:
RAR = assay: Cignal RAR reporter assay; assay type: cell-based; settings: 0.3 μg/ml
Description: Tissue irritation is a common side effect of retinoids. It is mediated, at least in part, by retinoid interaction with retinoic acid receptors (RARs; Thacher S M, Vasudevan J, Chandraratna R A. Therapeutic applications for ligands of retinoid receptors. Curr Pharm Des. 2000 January; 6(1):25-58; Kambayashi H, Odake Y, Takada K, Funasaka Y, Ichihashi M, Kato S. N-retinoyl-D-glucosamine, a new retinoic acid agonist, mediates topical retinoid efficacy with no irritation on photoaged skin. Br J Dermatol. 2005 December; 153 Suppl 2:30-6).

[1] = test system: UVB-irradiated neonatal human dermal fibroblasts (HDF); assay: MTT cytotoxicity on UVB-irradiated HDF; assay type: cell-based; settings: 10 μg/ml
Description: Retinoids are used to remediate the effects of photoaging, caused by exposure to solar radiation (Tierney, E. P., Hanke C. W., “Recent Advances in Combination Treatments for Photoaging: Review of the Literature,” Dermatol. Surg., 2010, 36:829-40). Therefore, we compared the effect of bakuchiol and SBD.FA on confluent cultures of UVB-irradiated neonatal human dermal fibroblasts (HDF). The total irradiation dose (150mJ/cm2) was biologically relevant, i.e., equivalent to doses received by humans exposed to midday, clear sky, midsummer sun for a moderate period of time (Besaratinia, A., Kim, S. I., Pfeifer, G. P., “Rapid repair of UVA-induced oxidized purines and persistence of UVB-induced dipyrimidine lesions determine the mutagenicity of sunlight in mouse cells,” FASEB J., 2008, 22(7):2379-92). […] Under these conditions, the cytotoxicity at the highest concentration tested (10 μg/ml) compared to the water-treated control was 36% for bakuchiol and 8% for SBD.FA, as determined by the MTT method (Berridge M. V., Tan A. S., “Characterization of the Cellular Reduction of 3-(4,5-dimethylthiazol-2-yl)-2,5-diphenyltetrazolium bromide (MTT): Subcellular Localization, Substrate Dependence, and Involvement of Mitochondrial Electron Transport in MTT Reduction,” Arch. Biochem. Biophys. 1993, 303:474-482), using Molecular Devices microplate spectrophotometer MAX190 at 570 nm.

adult HEK = assay: Adult HEK proliferation; assay type: cell-based, human; settings: Homo sapiens; 2.5 μg/ml
[2] = test system: mouse melanoma cells (B16F10); assay: B16F10 melanoma growth and melanin; assay type: cell-based; settings: Mus musculus, B16-F10; 2.5 μg/ml; read-out: inhibition of B16F10 melanocyte proliferation
Description: Instead, cells cultured in the presence of SBD.SE grew slower and if allowed to reach monolayer, they become growth-arrested due to contact inhibition. […] Other retinoids, such as bexarotene, are known to have antineoplastic activity against cancers such as cutaneous T cell lymphoma.
The mechanism of action for this effect may be multifactorial and involve the inhibition of tyroinase and/or melanin secretion by melanocytes.

[3] = test system: non-irradiated neonatal HDF; assay: Cytotoxicity on non-irradiated neonatal HDF monolayers; assay type: cell-based, human; settings: 12.5 μg/ml
3T3 cells = assay: 3T3 Neutral Red phototoxicity (OECD 432); assay type: cell-based; settings: up to at least 100 μg/ml
Procedure: Phototoxicity is defined as light-activated cytotoxicity. […] The protocol followed in this example was based on the OECD 432 Guidelines. Four 96 well plates were seeded with 3T3 cells (Sigma, St. Louis, Mo.; cat. 93061524-1VL) at 10,000 cells per well in DMEM supplemented with 10% iron-fortified calf serum, and grown overnight in humidified atmosphere at 37° C. in 5% CO2. Serial dilutions of SBD.SE and chlorpromazine (positive control) were added to 2 plates each. […]
[…] Plates were returned to the incubator for 24 h, afterward the medium was removed, cells were rinsed with PBS and placed in Neutral Red medium at 50 μg/ml in which cells were incubated for 3 more hours. Wells were then washed with PBS and Neutral Red was extracted from cells with 1.0% Glacial Acetic Acid/50% Ethanol/49% H2O solution.
Following a 30-minute extraction with mixing, the absorbance of each well was measured at 570 nm with Molecular Devices SpectraMax® microplate spectrophotometer. P values were calculated using two-tailed Student's test and p=0.05 was set as borderline for statistical significance.

[4] = DPPH assay (free radical scavenging); assay type: biochemical; settings: 520 nm
Description: The objective of this experiment was to determine the antioxidant capacity of SBD.SE, using DPPH assay methodology. DPPH (2,2-diphenyl-1-picrylhydrazyl) is a stable free radical. The principle of the DPPH assay uses the reduction of the DPPH radical (purple) to diphenylpicrylhydrazine (yellow) as an indication of free radical scavenging capacity of a given test material (Schenk, G. H., Swieczkowski, N. K., “Colorimetric determination of pyrogallol and 2,6-dimethoxyphenol with diphenylpicrylhydrazyl,” Talanta, 1971, 18:230-4). Following the incubation of a test agent with DPPH solution, a reduction in absorbance at 520 nm compared to control is indicative of DPPH-scavenging. The degree of DPPH scavenging activity is expressed as % water control.

P. acnes = assay: MIC against planktonic P. acnes; assay type: cell-based, Propionibacterium acnes; settings: Cutibacterium acnes; exponentially-growing planktonic bacteria, oxygen-free atmosphere; read-out: MIC (minimal inhibitory concentration)
Procedure: Serial dilutions of SBD.SE and SBD.FA were incubated with exponentially-growing planktonic P. acnes bacteria in oxygen-free atmosphere.
The MIC (minimal inhibitory concentration) for SBD.SE was determined to be about 30 μg/ml and for SBD.FA—about 60 μg/ml.

[5] = UVB irradiation, HPLC-MS profile; assay type: physicochemical; settings: irradiated vs non-irradiated
Description: Both compounds were irradiated with UVB light and their HPLC-MS profile was compared to their respective non-irradiated controls. FIGS. 2, 3, 6, and 7 show HPLC chromatograms of UVB-irradiated (lower portions) and non-irradiated samples (upper portions) of bakuchiol (FIGS. 2 and 3) and SBD.SE (FIGS. 6 and 7) detected at 254 nm (FIGS. 2 and 6) and 230 nm (FIGS. 3 and 7).

| SMILES | increase of RAR-mediated transcription (RAR) [%] | cytotoxicity compared to the water-treated control ([1]; human, 48 h) [%] | inhibition at 2.5 µg/mL (adult HEK) [%] | inhibition at 2.5 µg/mL [2] [%] | cytotoxicity ([3]; human) [%] | cytotoxicity in absence and presence of UVB light (3T3 cells) | DPPH color (% Control) ([4]; 0.5 ug/ml) | DPPH color (% Control) ([4]; 2 ug/ml) | DPPH color (% Control) ([4]; 10 ug/ml) | MIC (P. acnes) [µg/mL] | stability under UVB irradiation (HPLC-MS) [5] | cytotoxicity compared to the water-treated control ([1]; UVB 150mJ/cm2, added 24 h before, terminated 24 h after irradiation, MTT) [%] | cytotoxicity ([3]; monolayers formed before addition) [%] |
| --- | --- | --- | --- | --- | --- | --- | --- | --- | --- | --- | --- | --- | --- |
| CC1=C(/C=C/C(C)=C/C=C/C(C)=C/C(=O)O)C(C)(C)CCC1 [ATRA, all-trans retinoic acid, reference compound] | 460 | – | – | – | – | – | – | – | – | – | – | – | – |
| C=CC(C)(/C=C/c1ccc(OC(=O)/C=C/c2ccc(O)c(OC)c2)cc1)CCC=C(C)C (stereo not shown) [SBD.FA] | – | 8 | 21 | 53 | 8 | lack of significant cytotoxicity | 102 | 99 | 60 | ~60 (≈ 139 µM) | – | – | – |
| C=C[C@@](C)(/C=C/c1ccc(O)cc1)CCC=C(C)C [bakuchiol, reference compound] | – | – | – | – | – | – | 85 | 92 | 46 | – | disintegrates | 36 | 39 |
